Measured values: US20050267020A1, “Polypeptides derived from inducible hsp70 and pharmaceutical compositions containing the same” (priority 2001, published 2005)

Legend:
[1] = biological target: T1, HLA-A*0201 (Homo sapiens, UniProt P04439, D140Y/D185E/D98H/E176V/E277Q/G131W/G231S/I119V/I121R/I166T/I218V/L300P/L318F/N151K/N90K/P208A/P217A/Q86G/Q94H/R138H/R169H/T345S); assay: Measurement of peptide relative affinity to HLA-A*0201 on T2 cells; type: binding; conditions: HLA-A*0201, T2 cells; ratio to reference peptide HIVpol 589; the lower the RA-value, the stronger the binding
T1 construct: Tap−/− cells expressing the studied HLA-class I molecule; endogenous in cells; host or cells: T2 cells (Tap-/-, HLA-A*0201)
Description: Measurement of Peptide Relative Affinity to HLA class I. Tap−/− cells expressing the studied HLA-class I molecule (3×10^5 cells/mL) were incubated with various concentrations of peptides ranging from 100 μM to 0.1 μM in serum-free RPMI 1640 medium supplemented with 100 ng/ml of human β-2m at 37° C. for 16 hours. Cells were then washed twice and stained with the specific anti-class I mAb followed by FITC conjugated goat anti mouse Ig mAb to quantify the expression of HLA-A*0201. For each peptide concentration, the HLA-specific staining was calculated as the % of the staining obtained with 100 μM of the reference peptide. The relative affinity (RA) is determined as: RA=(Concentration of each peptide that induces 20% of HLA expression/Concentration of the reference peptide that induces 20% of HLA expression). The lower the RA-value, the stronger is the peptide binding to HLA. The mean RA value for each peptide is determined from at least three independent experiments. […]
(§1) The affinity of each peptide was assayed experimentally by determination of the Relative Affinity: the necessary peptide dose to stabilise a reference quantity of HLA-A*0201 molecules at the surface of T2 cells; and the stability of each peptide was assayed by determination of the half-life of the peptide/HLA-A*0201 molecule complex (DC50: dissociation complex 50).

[2] = biological target: T2, HLA-A*0201/peptide complex (Homo sapiens, UniProt P04439, D140Y/D185E/D98H/E176V/E277Q/G131W/G231S/I119V/I121R/I166T/I218V/L300P/L318F/N151K/N90K/P208A/P217A/Q86G/Q94H/R138H/R169H/T345S); assay: Assessment of peptide/HLA class I complex stability (DC50); type: binding; conditions: half life (DC50) of the HLA-A*0201/peptide complex
T2 construct: Tap−/− cells expressing the studied HLA-class I molecule; endogenous in cells; host or cells: T2 cells (Tap-/-, HLA-A*0201)
Description: Assessment of Peptide/HLA class I Complex Stability. Tap−/− cells (10^6/mL) were incubated overnight with 100 μM of each peptide in serum-free RPMI 1640 medium supplemented with 100 ng/mL of […] at 37° C. Cells were then washed four times to remove free peptide, incubated with Brefeldin A (10 μg/mL) for 1 hour to block cell surface expression of newly synthesized HLA molecules, washed and incubated at 37° C. for 0, 2, 4 or 6 hours. Subsequently, cells were stained with the HLA specific mAb followed by FITC conjugated goat anti mouse Ig mAb. For each time point, peptide induced HLA expression was calculated as: Mean fluorescence of peptide preincubated cells—Mean fluorescence of cells treated in similar conditions in the absence of peptide. DC50 (dissociation complex; DC) was defined as the time required for the loss of 50% of the HLA-A*0201/peptide complexes stabilized at t=0.
as §1

[3] = tested on: human CD8+ cells; assay: Generation of CTL from human PBMC with peptide- or polyepitope-pulsed dendritic cells, intracellular IFN-γ staining; type: cell-based; conditions: CD8+ cells stimulated with peptide-loaded dendritic cells
Description: The three graphs entitled hCTL380, hCTL391 and hCTL393 represent respectively the testing of p380, p391 and p393-specific human CTLs. P391 and p393 specific CTLs were tested towards EBV-B cells, whereas p380 specific CTLs were tested towards T2 cells. The number of IFN-γ producing CD8+ cells for 10^5 CD8+ cells upon activation, indicated on the X-axis, was measured, as assessed by staining cells for CD8 and intracellular IFN-γ.
Polyepitope induced human CTL were tested for their capacity to respond to T2 cells loaded with p380, p391 or p393 or the irrelevant HIVpol589 peptides in intracellular IFN-γ staining. The X axis represents the number of IFNγ-producing CTL/10^5 CD8+ cells. On the Y axis, upper to lower bars represent the results obtained when cells were loaded respectively with irrelevant HIV pol589 peptides, or with p380, p391 or p393 peptides.
Generation of CTL from Human Peripheral Blood Mononuclear Cells (PBMC). Fresh PBMC collected from healthy donnors under informed consent were serologically typed for the studied HLA-class I molecule, and purified using standard Ficoll-Paque (Amersham Pharmacia Biotech AB). Dendritic cells (DC) were prepared by cultivating plastic adherent PBMC in the presence of 500 U/mL GM-CSF (R&D Systems Inc. MN) and 500 U/mL IL-4 (R&D Systems Inc. MN) for 7 days such as described in Keogh et al. (30).
DC were then maturated for 2 days with 2 μg/mL anti-CD40 antibody and 100 ng/mL Poly I:C (Sigma-Aldrich). […] Autologous CD8+ purified T-cells (CD8 MicroBeads, Miltneyi Biotec Inc. CA) were stimulated weekly with DC pulsed for two hours with peptide (10 μM) and irradiated at 35Gy at a T:DC ratio of 10:1 in culture medium (CM; RPMI 1640 supplemented with 10% human AB serum, […] L-glutamine and gentamycin). 1×10^3 U/mL IL-6 and SU/mL IL-12 (R&D Systems Inc. MN) were added during the first week of culture. 20 U/mL clinical grade IL-2 (Proleukin, Chiron Corp.) and 10 ng/mL IL-7 (R&D Systems Inc. MN) were added during the next two weeks of culture. 7 days after the last stimulation with DC, peptide specific IFN-γ secreting CD8+ T cells were magnetically sorted following encounter of the peptide presented by HLA-A*0201+ B-EBV cells (IFN-γ Secretion Assay, Miltenyi Biotec Inc. CA). The characterization of peptide-specific T cells was tested 7 days after the purification step.
Intracellular IFN-g Staining. 5×10^4 T cells were incubated with 10^5 stimulating peptide loaded EBV-B cells or with 10^5 tumor cells in the presence of 20 μg/ml brefeldin-A (Sigma, Oakville, Canada). Six hours later, they were washed, stained with r-phycoerythrin-conjugated anti-CD8 antibody (Caltag Laboratories, Burlingame, Calif.) in PBS for 25 min at 4° C., washed and fixed with 4% PFA. Then, cells were permeabilized with PBS 0.5% BSA 0.2% saponin (Sigma, Oakville, Canada), and stained with allophycocyanin-conjugated anti-IFNg mAb (PharMingen, Mississauga, Canada) for 25 min at 4° C. Cells were analyzed on FACSCalibur (Becton Dickinson, Mountain View, Calif.).

[4] = tested on: COS cells transfected with both Hsp70 and HHD expression vectors; assay: Peptide processing assay on COS-transfected cells, TNF-α secretion by murine CTL; type: cell-based, simian
From the text: After contact of murine CTL lines with transfected COS cell, CTL recognition of COS cells is expressed as CTL secretion of TNF-α dosed in supernatant (X Axis, TNF-α ranges from 0 to 500 pg/ml). The graphs represent TNF-α dosage by cytotoxic cell lines, respectively mCTL380, mCTL391 mCTL393 and mCTL134, after contact with COS cells. In each graph, upper to lower bars represent the different cells in contact with CTL, respectively: negative control (no COS cell), COS cells, COS cells transfected with Hsp70 expression plasmid, COS cells transfected with HHD expression plasmid, positive control (COS cells transfected with HHD and pulsed with the respective peptide), COS cells transfected with HHD and with Hsp70 expression plasmids.
Peptide Processing Assay on COS-Transfected Cells. 2.2×10^4 simian COS cells were plated in flat-bottom 96 well plates in DMEM 10% FCS, in quadruplicates for each condition. 18 hours later, the medium is discarded, and 100 ng of each DNA plasmid, encoding for Hsp70 and HLA class I molecules, is put in contact with COS cells in DMEM 10% Nuserum […] Chloroquine 10 mg/mL DEAE Dextran. After 4 hours of incubation at 37° C., transfection medium is discarded, and 50 μL PBS 10% DMSO is added for 2 minutes for integration of plasmids. It is then discarded and transfected COS cells are placed in DMEM 10% FCS for 40 hours. Transfected COS cells are then used with 5×10^4 murine CTL in a TNF-α secretion assay.
(§2) TNF-α Secretion Assay. Transfected COS cells on day 4 or 10^5 target tumor cells were plated in 50 μL RPMI 10% FCS and when necessary incubated with 10 μM peptide for 1 hour. In blocking experiments, anti-HLA class I antibody w6/32 or an irrelevant antibody were incubated with target cells for 1 h30. 5×10^4 T cells were then added in 50 μL RPMI 10% FCS and incubated for 6 hours. Each condition was tested in quadruplicates. 50 μL of the supernatant was collected. Standard dilutions were prepared in 50 μL with final doses of TNF-α (kindly provided by I. Apfler, Bender Wien, Austria) ranging from 10^4 to 0.08 pg/mL. On both the supernatants and the standards were added 50 μL of 3×10^4 TNF-α sensitive WEHI-164c13 cells. They were incubated for 16 hours at 37° C. (23). Inhibition of cell proliferation was evaluated by the MTT colorimetric method. Briefly, 50 μL of MTT at 2.5 mg/mL (Sigma-Aldrich) was added and incubated for 4 hours at 37° C. Cells were then lyzed with 100 μL of a pH4.7 33% N,N-dimethyl formamide (Sigma-Aldrich) 20% SDS solution in water. Two hours after cells lysis, OD was measured at 550 nm on a Dynatech MR5000 spectrophotometer. TNF-α quantitation was calculated by linear interpolation with the standard dilutions.

[5] = tested on: HHD mice; assay: Generation of CTL in HLA-A*0201 transgenic HHD mice (immunogenicity); type: in vivo, mouse
Description: Generation of CTL in HLA-transgenic mice. HLA-transgenic mice were injected subcutaneously at the base of the tail with 100 μg of peptide emulsified in incomplete Freund's adjuvant (IFA) in the presence of 140 μg of the I-A^b restricted HBVcore-derived T-helper epitope (128-140; sequence TPPAYRPPNAPIL). After 11 days, spleen cells (5×10^7 cells in 10 mL) were stimulated in vitro with peptide (10 μM). On day 6 of culture, the bulk responder populations were tested for specific cytotoxicity. Upon response, the CTL line was then weekly re-stimulated in vitro with 20×10^6 35Gy irradiated spleen cells in the presence of 1 to 0.1 μM peptide and 50 U/mL IL-2 (Proleukin, Chiron Corp.). Cytotoxicity was assayed 6 days after the last stimulation and TNF-α secretion 11-13 days after, with the addition of 50 U/mL IL-2 on day 7. HHD mice transgenic for HLA-A*0201 were used. B7B7 Kd mice and mice transgenic for HLA-A*0301 are used for the study of the HLA-B*0701 and HLA-A*0301 restricted peptides respectively.

[6] = tested on: MCF-7 and SAOS tumor cell lines; assay: Recognition by murine CTL of epitopes at the surface of human tumor cells, TNF-α secretion assay; type: cell-based; conditions: HLA-A*0201+ Hsp70+ tumor cells
From the text: CTL recognition of tumoral cells is expressed as CTL secretion of TNF-α dosed in supernatant (X Axis, TNF-α ranges from 0 to 1000 pg/ml) after contact with the cells. Upper to lower bars represent the different cells and reagents in contact with CTL, respectively: 2 negative controls (M113, M44), SAOS, MCF-7, MCF-7 blocked with anti-class I (w6/32) antibody before mixed culture, and MCF-7 blocked with an irrelevant antibody before mixed culture.
as §2
We studied whether the over-expression of Hsp70 described in certain tumor cell lines was high enough to enable these epitopes to be presented at the surface of tumor cells. We addressed this question with our already available high-avidity murine CTLs, hypothesizing that such a high CTL avidity enables the recognition of the highest-Hsp70 expressing human tumor cells. […]

LIGRKFGDPV [HSP 73]
Relative affinity [1]: >20

SLFEGIDFYT [HSP 286]
Stability (hrs) [2]: >6 h hrs

LLDVAPLSL [HSP 393]
induction of specific human CTL [3]: capable of stimulating specific human CTL
processing of the peptide: recognition of Hsp70 + HHD transfected COS cells by the specific murine CTL line [4]: are epitopes
induction of specific cytotoxic T cell immune response in HHD mice [5]: capable of generating a specific cytotoxic T cell immune response
presentation of the epitope at the surface of Hsp70 over-expressing human tumor cells [6]: epitope correctly presented at the surface of Hsp70 over-expressing tumors
